Experimental data from the NIST ThermoML archive (doi:10.1016/j.jct.2012.09.031).
Several values for one entry are separate records, joined by “and”; a condition that tells them apart may be missing. Equal values may be shown once.

Tests used:
[1] = Crystal, Calculated from knudsen effusion weight loss
[2] = molar enthalpy of vaporization or sublimation; conditions: 298.15 K; Crystal; Static calorimetry

O=[N+]([O-])c1cccc(I)c1 [1-iodo-3-nitrobenzene]
[1]
Conditions	vapor or sublimation pressure
287.14 K	0.000148 kPa and 0.000145 kPa
289.15 K	0.000187 kPa and 0.000191 kPa
291.13 K	0.000238 kPa
293.13 K	0.000309 kPa and 0.000314 kPa
295.15 K	0.000392 kPa and 0.0004 kPa
297.14 K	0.000508 kPa and 0.000506 kPa
299.14 K	0.000641 kPa and 0.000643 kPa
301.14 K	0.000812 kPa
303.13 K	0.001033 kPa and 0.001074 kPa

Conditions	molar enthalpy [kJ/mol]
[2]	89.4

O=[N+]([O-])c1ccc(I)cc1 [1-iodo-4-nitrobenzene]
[1]
Conditions	vapor or sublimation pressure
311.18 K	9.7e-05 kPa and 9.4e-05 kPa and 9.3e-05 kPa
313.17 K	0.000121 kPa and 0.000114 kPa and 0.000118 kPa
315.11 K	0.000151 kPa and 0.00015 kPa and 0.000152 kPa
317.18 K	0.000179 kPa and 0.000193 kPa
319.13 K	0.00023 kPa and 0.000226 kPa
321.1 K	0.000282 kPa and 0.000277 kPa and 0.000283 kPa
323.18 K	0.000355 kPa and 0.000354 kPa and 0.000359 kPa
325.18 K	0.000451 kPa and 0.000436 kPa and 0.000455 kPa
327.12 K	0.00055 kPa and 0.000546 kPa and 0.000552 kPa
329.18 K	0.000672 kPa and 0.000673 kPa
331.18 K	0.000856 kPa and 0.00083 kPa and 0.000857 kPa
333.11 K	0.001045 kPa and 0.001036 kPa and 0.001018 kPa

Conditions	molar enthalpy [kJ/mol]
[2]	98.2

O=[N+]([O-])c1ccccc1I [1-iodo-2-nitrobenzene]
[1]
Conditions	vapor or sublimation pressure
287.15 K	8.2e-05 kPa and 8.5e-05 kPa
289.14 K	0.000107 kPa and 0.000103 kPa
291.13 K	0.000139 kPa and 0.000141 kPa and 0.000135 kPa
293.14 K	0.000175 kPa and 0.000178 kPa and 0.000184 kPa
295.15 K	0.000224 kPa and 0.000226 kPa and 0.00023 kPa
297.14 K	0.000283 kPa and 0.000289 kPa and 0.000288 kPa
299.14 K	0.000373 kPa and 0.000375 kPa and 0.000374 kPa
301.14 K	0.000458 kPa and 0.000466 kPa and 0.000479 kPa
303.13 K	0.000609 kPa and 0.000616 kPa
305.14 K	0.000767 kPa and 0.000768 kPa and 0.000777 kPa
307.14 K	0.000974 kPa and 0.000975 kPa and 0.000998 kPa

Conditions	molar enthalpy [kJ/mol]
[2]	89.9
